Measured values from patent US11000033B2, “Ketone or oxime compound, and herbicide” (NISSAN CHEMICAL CORPORATION, priority 2014, dated 2021).

Tests used:
Type in all cases: in vivo
[1] = system: directly sowed rice plant; assay: Test Example 3: effect on crop by foliage application, Wagner pot (symbol b); conditions: application herbicide amount 320 g/ha
How it was run: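 Steps: fill a 1/10000-are Wagner pot with alluvial soil; add water and mix to submerge at 0.1–0.5 cm depth; sow rice plus Echinochloa crus-galli var. crus-galli, Leptochloa chinensis and Cyperus difformis; grow in a 25–30 °C greenhouse.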

Stellaria media = assay: Test Example 5: herbicidal effect by foliage application, plastic box (symbol P); conditions: 320 g/ha, 3 weeks after application
How it was run: (§1)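 Emulsion formulation, diluted with water to the intended rate, was applied uniformly to leaves by small sprayer. Recipients were 14-day greenhouse-grown seedlings (25° C. to 30° C.). Assessment followed at 3 weeks.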

rice plant = assay: Test Example 5: effect on crop by foliage application, plastic box (symbol b); conditions: 320 g/ha, 3 weeks after application
How it was run: (§2)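 In a plastic box 7 cm deep filled with sterilized diluvial soil, seeds of crops and weeds such as Digitaria ciliaris, Avena fatua and Amaranthus retroflexus are sown in spots and covered with about 1.5 cm of soil before greenhouse growth at 25–30° C.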

wheat [2] = assay: Test Example 5: effect on crop by foliage application, plastic box (symbol e); conditions: 320 g/ha, 3 weeks after application
How it was run: as §2

corn = assay: Test Example 5: effect on crop by foliage application, plastic box (symbol c); conditions: 320 g/ha, 3 weeks after application
How it was run: as §2

Alopecurus myosuroides = assay: Test Example 5: herbicidal effect by foliage application, plastic box (symbol J); conditions: 320 g/ha, 3 weeks after application
How it was run: as §1

[3] = system: Echinochloa crus-galli var. crus-galli; assay: Test Example 3: herbicidal effect by foliage application, Wagner pot (symbol H); conditions: application herbicide amount 320 g/ha
How it was run: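 Steps: fill pot with alluvial soil; add water to 0.1–0.5 cm depth; sow weed and rice seed; grow 14 days at 25–30 °C; spray diluted emulsion over the leaves; rate effect after 3 weeks.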

[4] = system: Echinochloa oryzacola Vasing.; assay: Test Example 1: herbicidal activity, application before weed generation in submerged conditions (symbol A); conditions: application herbicide amount 320 g/ha
How it was run: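 Weed control was rated three weeks after treatment on a 0–5 scale, from 5% or lower up to 90% or more. Pre-emergence water-surface application of diluted emulsion at a predetermined rate was made on the day of sowing, in flooded (4 cm water) pots containing rice seedlings, kept at 25–30 °C under glass.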

Scirpus juncoides = assay: Test Example 2: herbicidal activity, application during weed generation in submerged conditions (symbol B); conditions: Table 23; application herbicide amount 320 g/ha; grade 0-5 by criteria of Test Example 1
How it was run: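 Submerged alluvial soil (4 cm) sown with mixed seed; greenhouse 25–30° C. 1–2 leaf: diluted emulsion onto water surface, preset dose. Visual score, 3 wk.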

beet = assay: Test Example 5: effect on crop by foliage application, plastic box (symbol f); conditions: 320 g/ha, 3 weeks after application
How it was run: as §2

transplanted rice plant = assay: Test Example 1: effect on crop, application before weed generation in submerged conditions (symbol a); conditions: application herbicide amount 320 g/ha
How it was run: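 Rice at 2.5 leaf stage transplanted into submerged soil (4 cm depth) sown with three weed species; herbicide applied before weed emergence.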

wheat [5] = assay: Test Example 4: effect on crop by soil treatment (symbol e); conditions: application herbicide amount 320 g/ha
How it was run: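 Soil-treatment setup: crop and weed seeds were spot-sown into sterilized diluvial soil, then buried beneath approximately 1.5 cm of it, and the boxes were housed in a 25–30° C. greenhouse.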

Amaranthus retroflexus = assay: Test Example 5: herbicidal effect by foliage application, plastic box (symbol N); conditions: 320 g/ha, 3 weeks after application
How it was run: as §1

CCON=C(C)CC1CC(O)=C(c2c(C)cc(C)cc2C)C1=O (stereo not drawn) [1-003]
effect on crop b (directly sowed rice plant), grade 0-5 [1]: 5 (Herbicidal ratio of 90% or more (almost completely withered))
P: Stellaria media, herbicidal effect grade (Stellaria media): 2 (Herbicidal ratio of 20% or higher and lower than 40%)
b: directly sowed rice plant, effect on crop grade (rice plant): 5 (Herbicidal ratio of 90% or more (almost completely withered))
e: wheat, effect on crop grade (wheat [2]): 5 (Herbicidal ratio of 90% or more (almost completely withered))
c: corn, effect on crop grade (corn): 5 (Herbicidal ratio of 90% or more (almost completely withered))
J: Alopecurus myosuroides, herbicidal effect grade (Alopecurus myosuroides): 5 (Herbicidal ratio of 90% or more (almost completely withered))
herbicidal effect on H (Echinochloa crus-galli var. crus-galli), grade 0-5 [3]: 5 (Herbicidal ratio of 90% or more (almost completely withered))
Herbicidal effect grade, A: Echinochloa oryzacola Vasing. [4]: 5 (Herbicidal ratio of 90% or more (almost completely withered))
Herbicidal effect grade, B: Scirpus juncoides (Scirpus juncoides): 3 (Herbicidal ratio of 40% or higher and lower than 70%)
f: beet, effect on crop grade (beet): 3 (Herbicidal ratio of 40% or higher and lower than 70%)
Effect grade on crop, a: transplanted rice plant (transplanted rice plant): 5 (Herbicidal ratio of 90% or more (almost completely withered))
e (wheat) effect on crop grade (wheat [5]): 5 (Herbicidal ratio of 90% or more (almost completely withered))
N: Amaranthus retroflexus, herbicidal effect grade (Amaranthus retroflexus): 3 (Herbicidal ratio of 40% or higher and lower than 70%)

CC(CC1CC(O)=C(c2c(C)cc(C)cc2C)C1=O)=NOCC1CC1 (stereo not drawn) [1-024]
effect on crop b (directly sowed rice plant), grade 0-5 [1]: 5 (Herbicidal ratio of 90% or more (almost completely withered))
P: Stellaria media, herbicidal effect grade (Stellaria media): 3 (Herbicidal ratio of 40% or higher and lower than 70%)
b: directly sowed rice plant, effect on crop grade (rice plant): 5 (Herbicidal ratio of 90% or more (almost completely withered))
e: wheat, effect on crop grade (wheat [2]): 5 (Herbicidal ratio of 90% or more (almost completely withered))
c: corn, effect on crop grade (corn): 5 (Herbicidal ratio of 90% or more (almost completely withered))
J: Alopecurus myosuroides, herbicidal effect grade (Alopecurus myosuroides): 5 (Herbicidal ratio of 90% or more (almost completely withered))
herbicidal effect on H (Echinochloa crus-galli var. crus-galli), grade 0-5 [3]: 5 (Herbicidal ratio of 90% or more (almost completely withered))
Herbicidal effect grade, A: Echinochloa oryzacola Vasing. [4]: 5 (Herbicidal ratio of 90% or more (almost completely withered))
Herbicidal effect grade, B: Scirpus juncoides (Scirpus juncoides): 5 (Herbicidal ratio of 90% or more (almost completely withered))
f: beet, effect on crop grade (beet): 0 (Herbicidal ratio of 5% or lower (almost no effect))
Effect grade on crop, a: transplanted rice plant (transplanted rice plant): 5 (Herbicidal ratio of 90% or more (almost completely withered))
e (wheat) effect on crop grade (wheat [5]): 4 (Herbicidal ratio of 70% or higher and lower than 90%)
N: Amaranthus retroflexus, herbicidal effect grade (Amaranthus retroflexus): 0 (Herbicidal ratio of 5% or lower (almost no effect))

CC(CC1CC(O)=C(c2c(C)cc(C)cc2C)C1=O)=NOCC(=O)N1CCOCC1 (stereo not drawn) [1-025]
effect on crop b (directly sowed rice plant), grade 0-5 [1]: 5 (Herbicidal ratio of 90% or more (almost completely withered))
P: Stellaria media, herbicidal effect grade (Stellaria media): 4 (Herbicidal ratio of 70% or higher and lower than 90%)
b: directly sowed rice plant, effect on crop grade (rice plant): 4 (Herbicidal ratio of 70% or higher and lower than 90%)
e: wheat, effect on crop grade (wheat [2]): 4 (Herbicidal ratio of 70% or higher and lower than 90%)
c: corn, effect on crop grade (corn): 3 (Herbicidal ratio of 40% or higher and lower than 70%)
J: Alopecurus myosuroides, herbicidal effect grade (Alopecurus myosuroides): 5 (Herbicidal ratio of 90% or more (almost completely withered))
herbicidal effect on H (Echinochloa crus-galli var. crus-galli), grade 0-5 [3]: 5 (Herbicidal ratio of 90% or more (almost completely withered))
Herbicidal effect grade, A: Echinochloa oryzacola Vasing. [4]: 4 (Herbicidal ratio of 70% or higher and lower than 90%)
Herbicidal effect grade, B: Scirpus juncoides (Scirpus juncoides): 0 (Herbicidal ratio of 5% or lower (almost no effect))
f: beet, effect on crop grade (beet): 0 (Herbicidal ratio of 5% or lower (almost no effect))
Effect grade on crop, a: transplanted rice plant (transplanted rice plant): 3 (Herbicidal ratio of 40% or higher and lower than 70%)
e (wheat) effect on crop grade (wheat [5]): 0 (Herbicidal ratio of 5% or lower (almost no effect))
N: Amaranthus retroflexus, herbicidal effect grade (Amaranthus retroflexus): 0 (Herbicidal ratio of 5% or lower (almost no effect))

CC(CC1CC(O)=C(c2c(C)cc(C)cc2C)C1=O)=NOCC(C)O (stereo not drawn) [1-027]
effect on crop b (directly sowed rice plant), grade 0-5 [1]: 5 (Herbicidal ratio of 90% or more (almost completely withered))
P: Stellaria media, herbicidal effect grade (Stellaria media): 1 (Herbicidal ratio of 5% or higher and lower than 20%)
b: directly sowed rice plant, effect on crop grade (rice plant): 5 (Herbicidal ratio of 90% or more (almost completely withered))
e: wheat, effect on crop grade (wheat [2]): 4 (Herbicidal ratio of 70% or higher and lower than 90%)
c: corn, effect on crop grade (corn): 5 (Herbicidal ratio of 90% or more (almost completely withered))
J: Alopecurus myosuroides, herbicidal effect grade (Alopecurus myosuroides): 5 (Herbicidal ratio of 90% or more (almost completely withered))
herbicidal effect on H (Echinochloa crus-galli var. crus-galli), grade 0-5 [3]: 5 (Herbicidal ratio of 90% or more (almost completely withered))
Herbicidal effect grade, A: Echinochloa oryzacola Vasing. [4]: 4 (Herbicidal ratio of 70% or higher and lower than 90%)
Herbicidal effect grade, B: Scirpus juncoides (Scirpus juncoides): 3 (Herbicidal ratio of 40% or higher and lower than 70%)
f: beet, effect on crop grade (beet): 0 (Herbicidal ratio of 5% or lower (almost no effect))
Effect grade on crop, a: transplanted rice plant (transplanted rice plant): 4 (Herbicidal ratio of 70% or higher and lower than 90%)
e (wheat) effect on crop grade (wheat [5]): 3 (Herbicidal ratio of 40% or higher and lower than 70%)
N: Amaranthus retroflexus, herbicidal effect grade (Amaranthus retroflexus): 0 (Herbicidal ratio of 5% or lower (almost no effect))

CC(CC1CC(O)=C(c2c(C)cc(C)cc2C)C1=O)=NOCC(F)(F)F (stereo not drawn) [1-028]
effect on crop b (directly sowed rice plant), grade 0-5 [1]: 5 (Herbicidal ratio of 90% or more (almost completely withered))
P: Stellaria media, herbicidal effect grade (Stellaria media): 3 (Herbicidal ratio of 40% or higher and lower than 70%)
b: directly sowed rice plant, effect on crop grade (rice plant): 5 (Herbicidal ratio of 90% or more (almost completely withered))
e: wheat, effect on crop grade (wheat [2]): 3 (Herbicidal ratio of 40% or higher and lower than 70%)
c: corn, effect on crop grade (corn): 4 (Herbicidal ratio of 70% or higher and lower than 90%)
J: Alopecurus myosuroides, herbicidal effect grade (Alopecurus myosuroides): 5 (Herbicidal ratio of 90% or more (almost completely withered))
herbicidal effect on H (Echinochloa crus-galli var. crus-galli), grade 0-5 [3]: 5 (Herbicidal ratio of 90% or more (almost completely withered))
Herbicidal effect grade, A: Echinochloa oryzacola Vasing. [4]: 5 (Herbicidal ratio of 90% or more (almost completely withered))
Herbicidal effect grade, B: Scirpus juncoides (Scirpus juncoides): 4 (Herbicidal ratio of 70% or higher and lower than 90%)
f: beet, effect on crop grade (beet): 0 (Herbicidal ratio of 5% or lower (almost no effect))
Effect grade on crop, a: transplanted rice plant (transplanted rice plant): 5 (Herbicidal ratio of 90% or more (almost completely withered))
e (wheat) effect on crop grade (wheat [5]): 4 (Herbicidal ratio of 70% or higher and lower than 90%)
N: Amaranthus retroflexus, herbicidal effect grade (Amaranthus retroflexus): 0 (Herbicidal ratio of 5% or lower (almost no effect))

CSCCON=C(C)CC1CC(O)=C(c2c(C)cc(C)cc2C)C1=O (stereo not drawn) [1-029]
effect on crop b (directly sowed rice plant), grade 0-5 [1]: 5 (Herbicidal ratio of 90% or more (almost completely withered))
P: Stellaria media, herbicidal effect grade (Stellaria media): 3 (Herbicidal ratio of 40% or higher and lower than 70%)
b: directly sowed rice plant, effect on crop grade (rice plant): 5 (Herbicidal ratio of 90% or more (almost completely withered))
e: wheat, effect on crop grade (wheat [2]): 5 (Herbicidal ratio of 90% or more (almost completely withered))
c: corn, effect on crop grade (corn): 3 (Herbicidal ratio of 40% or higher and lower than 70%)
J: Alopecurus myosuroides, herbicidal effect grade (Alopecurus myosuroides): 5 (Herbicidal ratio of 90% or more (almost completely withered))
herbicidal effect on H (Echinochloa crus-galli var. crus-galli), grade 0-5 [3]: 5 (Herbicidal ratio of 90% or more (almost completely withered))
Herbicidal effect grade, A: Echinochloa oryzacola Vasing. [4]: 4 (Herbicidal ratio of 70% or higher and lower than 90%)
Herbicidal effect grade, B: Scirpus juncoides (Scirpus juncoides): 0 (Herbicidal ratio of 5% or lower (almost no effect))
f: beet, effect on crop grade (beet): 0 (Herbicidal ratio of 5% or lower (almost no effect))
Effect grade on crop, a: transplanted rice plant (transplanted rice plant): 5 (Herbicidal ratio of 90% or more (almost completely withered))
e (wheat) effect on crop grade (wheat [5]): 0 (Herbicidal ratio of 5% or lower (almost no effect))
N: Amaranthus retroflexus, herbicidal effect grade (Amaranthus retroflexus): 0 (Herbicidal ratio of 5% or lower (almost no effect))
